This note sets out measurements from patent US9913831B2, “Methods and compositions for treating nephrogenic diabetes insipidus” (UNIVERSITY OF UTAH RESEARCH FOUNDATION, priority 2011, dated 2018).

The test system of the experiment is Sprague-Dawley rats. As for the experimental part: Animal experiments: Male Sprague-Dawley rats were purchased from Charles River (Wilmington, Mass., USA), and Brattleboro mutant rats that lack AVP (HsdBlu:BRAT-Avpdi) were obtained from the Rat Resource & Research Center (RRRC), University of Missouri, Columbia, Mo., USA. Mice (B6D2 genetic background) were bred in-house. […] Lithium-added chow (40 mmol Li/kg chow) was custom prepared (MP Biomedicals, Aurora, Ohio, USA). Clopidogrel bisulfate was administered orally by powdering and dissolving Plavix® tablets (Bristol-Myers Squibb, New York, N.Y., USA) in drinking water. The concentration of the drug in the drinking water was adjusted daily based on the water consumption of the animals the previous day. The clopidogrel dose used in Sprague-Dawley rats (20 mg/kg bw/day) was the same as used by other investigators (de La Crux et al, 2003; Graciano et al, 2008). In mice, clopidogrel was administered at a dose of 80 mg/kg bw/day. […]
Microhematocrit was determined by centrifuging free-flowing blood collected in heparinized capillary tubes in a microhematocrit centrifuge (Clay Adams, Parsippany, N.J., USA). Urinary excretion of AVP was quantified by a commercial ELISA kit (Enzo Life Sciences, Farmingdale, N.Y., USA). […]

On to `COC(=O)[C@H](c1ccccc1Cl)N1CCc2sccc2C1` [clopidogrel], for which the “urinary excretion of AVP” value (clopidogrel administration alone, rats) is recorded as “significantly increased”. Also, where the note is “normal rats, clopidogrel 20 mg/kg bw/day in drinking water 13 days”, the urinary concentration entry is “Increased”.
